Experimental data as given in patent US20240165282A1, “CONFORMATIONAL CONSTRAINED SOMATOSTATIN RECEPTOR 3 PEPTIDE LIGANDS AND THEIR CONJUGATES AND USES THEREOF” (STARGET PHARMA LTD., priority 2021, published 2024).
*1 amine or outer side, *2 acyl side, *3 side chain or, on linkers, in order; H or OH if unused. Where a SMILES comes first, the peptide text is derived from it. Bridges are numbered along the chain shown (N, C = ends). [ ]: non-standard residue; d: D form. The star is where a group is joined. DOTA = O=C(O)CN1CCN(CC(=O)O)CCN(CC(=O)*)CCN(CC(=O)O)CC1; N(2-mercaptoethyl)Gly = O=C(CN(CCS[*:3])[*:1])[*:2]

Experiments:
[1] = biological target: M2 (h) (Homo sapiens, UniProt P08172); assay: Cerep off-target radioligand binding; conditions: 1 micromolar; antagonist radioligand; read-out: % Activity: Inhibition of Control Specific Binding
Description: (§1) In this example, off-target interactions for SEQ ID NO.
(§2) The assays were performed by Eurofins Cerep (Celle 1'Evescault, France). Compound binding was calculated as a % inhibition of the binding of a radioactively labeled ligand specific for each target. Compound enzyme inhibition effect was calculated as a % inhibition of control enzyme activity. In each experiment and if applicable, the respective reference compound was tested concurrently with SEQ ID NO. 3, and the data were compared with historical values determined at Eurofins. The experiment was accepted in accordance with Eurofins validation Standard Operating Procedure. Results showing an inhibition (or stimulation for assays run in basal conditions) higher than 50% are considered to represent significant effects of the test compounds.

[2] = biological target: ETA (h) (Homo sapiens, UniProt P25101); assay: Cerep off-target radioligand binding; conditions: 1 micromolar; agonist radioligand; read-out: % Activity: Inhibition of Control Specific Binding
Description: as §1, §2

[3] = biological target: H2 (h) (Homo sapiens, UniProt P25021); assay: Cerep off-target radioligand binding; conditions: 1 micromolar; antagonist radioligand; read-out: % Activity: Inhibition of Control Specific Binding
Chain of H2 (h) (P25021 whole entry): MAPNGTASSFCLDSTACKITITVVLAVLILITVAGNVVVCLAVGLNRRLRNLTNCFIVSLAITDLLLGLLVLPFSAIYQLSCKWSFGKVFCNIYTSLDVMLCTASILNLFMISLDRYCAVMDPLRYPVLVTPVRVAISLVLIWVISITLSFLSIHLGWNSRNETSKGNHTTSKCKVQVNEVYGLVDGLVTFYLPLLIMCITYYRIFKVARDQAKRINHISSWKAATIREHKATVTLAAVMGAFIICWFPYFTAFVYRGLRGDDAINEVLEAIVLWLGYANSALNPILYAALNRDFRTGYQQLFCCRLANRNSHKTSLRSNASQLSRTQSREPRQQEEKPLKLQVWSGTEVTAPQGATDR
Description: as §1, §2

[4] = biological target: T1, 5-HT2B (h) (Homo sapiens, UniProt P41595); assay: Cerep off-target radioligand binding; conditions: 1 micromolar; agonist radioligand; read-out: % Activity: Inhibition of Control Specific Binding
T1 construct: Eurofins Cerep (contract assay)
T1 sequence (P41595 whole entry): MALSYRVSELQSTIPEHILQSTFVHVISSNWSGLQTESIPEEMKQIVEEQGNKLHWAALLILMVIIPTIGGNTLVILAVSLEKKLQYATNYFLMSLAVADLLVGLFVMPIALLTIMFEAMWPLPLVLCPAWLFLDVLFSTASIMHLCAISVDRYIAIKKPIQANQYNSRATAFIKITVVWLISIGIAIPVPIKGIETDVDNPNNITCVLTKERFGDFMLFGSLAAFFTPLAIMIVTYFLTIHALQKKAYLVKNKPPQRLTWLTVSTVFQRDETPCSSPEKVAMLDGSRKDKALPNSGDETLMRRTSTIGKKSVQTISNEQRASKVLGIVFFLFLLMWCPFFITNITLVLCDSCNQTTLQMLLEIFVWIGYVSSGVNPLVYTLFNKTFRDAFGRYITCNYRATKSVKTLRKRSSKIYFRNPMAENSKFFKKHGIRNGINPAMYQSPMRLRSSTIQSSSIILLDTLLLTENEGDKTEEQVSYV
Description: as §1, §2

[5] = biological target: M3 (h) (Homo sapiens, UniProt P20309); assay: Cerep off-target radioligand binding; conditions: 1 micromolar; antagonist radioligand; read-out: % Activity: Inhibition of Control Specific Binding
Description: as §1, §2

[6] = biological target: beta 2 (h) (Homo sapiens, UniProt P07550); assay: Cerep off-target radioligand binding; conditions: 1 micromolar; antagonist radioligand; read-out: % Activity: Inhibition of Control Specific Binding
Description: as §1, §2

[7] = biological target: A2A (h) (Homo sapiens, UniProt P29274); assay: Cerep off-target radioligand binding; conditions: 1 micromolar; agonist radioligand; read-out: % Activity: Inhibition of Control Specific Binding
Chain of A2A (h) (P29274 whole entry): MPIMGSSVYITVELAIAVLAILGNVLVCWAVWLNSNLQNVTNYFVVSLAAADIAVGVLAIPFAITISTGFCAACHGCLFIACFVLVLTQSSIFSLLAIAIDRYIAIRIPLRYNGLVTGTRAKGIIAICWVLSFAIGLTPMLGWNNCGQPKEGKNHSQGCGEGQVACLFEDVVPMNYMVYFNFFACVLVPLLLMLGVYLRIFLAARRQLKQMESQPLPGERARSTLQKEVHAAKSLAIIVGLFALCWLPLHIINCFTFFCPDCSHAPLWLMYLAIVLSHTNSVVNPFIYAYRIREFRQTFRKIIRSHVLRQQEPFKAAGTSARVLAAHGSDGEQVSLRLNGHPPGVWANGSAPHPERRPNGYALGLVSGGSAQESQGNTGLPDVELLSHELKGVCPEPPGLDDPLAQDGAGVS
Description: as §1, §2

[8] = biological target: CB2 (h) (Homo sapiens, UniProt P34972); assay: Cerep off-target radioligand binding; conditions: 1 micromolar; agonist radioligand; read-out: % Activity: Inhibition of Control Specific Binding
Chain of CB2 (h) (P34972 whole entry): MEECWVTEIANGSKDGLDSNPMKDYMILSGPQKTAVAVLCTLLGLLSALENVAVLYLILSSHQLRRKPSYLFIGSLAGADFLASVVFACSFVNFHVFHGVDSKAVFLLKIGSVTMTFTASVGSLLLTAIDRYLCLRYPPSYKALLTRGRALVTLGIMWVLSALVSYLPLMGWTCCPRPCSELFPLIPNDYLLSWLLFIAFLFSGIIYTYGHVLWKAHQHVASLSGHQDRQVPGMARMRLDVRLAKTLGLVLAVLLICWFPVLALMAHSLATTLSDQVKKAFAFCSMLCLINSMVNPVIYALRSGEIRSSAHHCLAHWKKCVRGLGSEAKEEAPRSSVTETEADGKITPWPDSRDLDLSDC
Description: as §1, §2

[9] = biological target: T2, dopamine transporter (h) (Homo sapiens, UniProt Q01959); assay: Cerep off-target radioligand binding; conditions: 1 micromolar; antagonist radioligand; read-out: % Activity: Inhibition of Control Specific Binding
T2 construct: Eurofins Cerep (contract assay)
Description: as §1, §2

[10] = biological target: kappa (h) (KOP) (Homo sapiens, UniProt P41145); assay: Cerep off-target radioligand binding; conditions: 1 micromolar; agonist radioligand; read-out: % Activity: Inhibition of Control Specific Binding
Description: as §1, §2

[11] = biological target: CB1 (h) (Homo sapiens, UniProt P21554); assay: Cerep off-target radioligand binding; conditions: 1 micromolar; agonist radioligand; read-out: % Activity: Inhibition of Control Specific Binding
Chain of CB1 (h) (P21554 whole entry): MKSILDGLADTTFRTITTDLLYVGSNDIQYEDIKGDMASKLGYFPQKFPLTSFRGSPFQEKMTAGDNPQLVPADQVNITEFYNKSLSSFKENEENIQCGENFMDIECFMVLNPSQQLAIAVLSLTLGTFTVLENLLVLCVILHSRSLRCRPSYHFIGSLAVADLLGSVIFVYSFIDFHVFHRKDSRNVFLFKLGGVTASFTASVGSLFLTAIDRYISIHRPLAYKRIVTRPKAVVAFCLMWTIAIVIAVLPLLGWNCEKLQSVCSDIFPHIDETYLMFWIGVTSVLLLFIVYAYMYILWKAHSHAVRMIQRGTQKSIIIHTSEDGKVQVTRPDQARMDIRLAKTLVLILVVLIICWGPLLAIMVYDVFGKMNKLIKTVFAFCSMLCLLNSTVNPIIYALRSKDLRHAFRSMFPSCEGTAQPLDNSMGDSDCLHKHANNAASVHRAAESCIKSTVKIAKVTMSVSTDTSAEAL
Description: as §1, §2

[12] = biological target: D1 (h) (Homo sapiens, UniProt P21728); assay: Cerep off-target radioligand binding; conditions: 1 micromolar; antagonist radioligand; read-out: % Activity: Inhibition of Control Specific Binding
Chain of D1 (h) (P21728 whole entry): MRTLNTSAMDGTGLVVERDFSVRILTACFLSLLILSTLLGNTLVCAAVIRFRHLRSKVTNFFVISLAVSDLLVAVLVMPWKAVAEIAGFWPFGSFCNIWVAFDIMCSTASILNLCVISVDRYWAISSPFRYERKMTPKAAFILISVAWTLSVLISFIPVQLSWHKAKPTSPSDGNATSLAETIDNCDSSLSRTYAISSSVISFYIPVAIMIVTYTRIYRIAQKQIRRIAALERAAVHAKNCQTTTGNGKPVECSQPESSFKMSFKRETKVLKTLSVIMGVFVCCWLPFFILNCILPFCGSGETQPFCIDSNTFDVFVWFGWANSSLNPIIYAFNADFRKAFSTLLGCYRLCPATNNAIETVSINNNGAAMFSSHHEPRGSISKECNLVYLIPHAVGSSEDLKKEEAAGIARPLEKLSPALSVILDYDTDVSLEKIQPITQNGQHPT
Description: as §1, §2

[13] = biological target: N neuronal alpha 4beta 2 (h) (Homo sapiens, UniProt P17787+P43681); assay: Cerep off-target radioligand binding; conditions: 1 micromolar; agonist radioligand; read-out: % Activity: Inhibition of Control Specific Binding
Description: as §1, §2

[14] = biological target: H1 (h) (Homo sapiens, UniProt P35367); assay: Cerep off-target radioligand binding; conditions: 1 micromolar; antagonist radioligand; read-out: % Activity: Inhibition of Control Specific Binding
Chain of H1 (h) (P35367 whole entry): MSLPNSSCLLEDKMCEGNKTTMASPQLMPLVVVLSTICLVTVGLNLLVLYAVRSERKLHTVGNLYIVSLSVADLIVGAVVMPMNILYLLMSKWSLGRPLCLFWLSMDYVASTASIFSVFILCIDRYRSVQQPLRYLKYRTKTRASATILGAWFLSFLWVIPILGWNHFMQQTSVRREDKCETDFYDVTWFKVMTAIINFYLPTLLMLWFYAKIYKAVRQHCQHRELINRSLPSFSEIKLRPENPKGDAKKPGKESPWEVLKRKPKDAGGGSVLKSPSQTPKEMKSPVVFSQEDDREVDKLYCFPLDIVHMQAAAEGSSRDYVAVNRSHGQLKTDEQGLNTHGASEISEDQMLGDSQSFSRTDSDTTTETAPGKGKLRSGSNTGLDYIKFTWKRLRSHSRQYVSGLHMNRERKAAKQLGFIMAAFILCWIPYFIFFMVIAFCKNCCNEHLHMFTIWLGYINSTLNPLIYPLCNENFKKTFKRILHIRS
Description: as §1, §2

[15] = biological target: alpha 2A (h) (Homo sapiens, UniProt P08913); assay: Cerep off-target radioligand binding; conditions: 1 micromolar; antagonist radioligand; read-out: % Activity: Inhibition of Control Specific Binding
Chain of alpha 2A (h) (P08913 whole entry): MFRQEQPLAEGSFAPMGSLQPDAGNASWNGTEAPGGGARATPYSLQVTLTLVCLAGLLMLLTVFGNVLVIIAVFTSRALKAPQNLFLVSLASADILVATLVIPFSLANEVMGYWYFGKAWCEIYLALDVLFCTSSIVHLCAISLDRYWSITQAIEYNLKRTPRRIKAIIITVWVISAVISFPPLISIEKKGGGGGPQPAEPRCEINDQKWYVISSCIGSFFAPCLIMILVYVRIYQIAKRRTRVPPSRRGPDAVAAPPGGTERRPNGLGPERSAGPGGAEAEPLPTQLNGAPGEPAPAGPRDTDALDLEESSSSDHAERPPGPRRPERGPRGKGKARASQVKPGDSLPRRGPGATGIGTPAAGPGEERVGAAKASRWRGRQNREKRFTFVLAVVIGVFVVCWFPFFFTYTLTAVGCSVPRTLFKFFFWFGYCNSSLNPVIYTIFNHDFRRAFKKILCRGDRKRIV
Description: as §1, §2

[16] = biological target: delta (DOP) (h) (Homo sapiens, UniProt P41143); assay: Cerep off-target radioligand binding; conditions: 1 micromolar; agonist radioligand; read-out: % Activity: Inhibition of Control Specific Binding
Chain of delta (DOP) (h) (P41143 whole entry): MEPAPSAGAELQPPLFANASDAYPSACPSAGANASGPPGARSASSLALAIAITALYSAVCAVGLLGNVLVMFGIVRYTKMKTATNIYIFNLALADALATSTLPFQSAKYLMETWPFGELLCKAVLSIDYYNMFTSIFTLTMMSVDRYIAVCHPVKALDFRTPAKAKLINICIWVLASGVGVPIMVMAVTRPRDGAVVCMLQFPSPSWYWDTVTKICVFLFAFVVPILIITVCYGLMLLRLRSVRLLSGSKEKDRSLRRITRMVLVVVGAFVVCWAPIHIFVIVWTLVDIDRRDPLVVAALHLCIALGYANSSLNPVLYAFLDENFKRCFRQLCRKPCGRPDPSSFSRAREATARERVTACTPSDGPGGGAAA
Description: as §1, §2

[17] = biological target: M1 (h) (Homo sapiens, UniProt P11229); assay: Cerep off-target radioligand binding; conditions: 1 micromolar; antagonist radioligand; read-out: % Activity: Inhibition of Control Specific Binding
Description: as §1, §2

[18] = biological target: CCK1 (CCKA) (h) (Homo sapiens, UniProt P32238); assay: Cerep off-target radioligand binding; conditions: 1 micromolar; agonist radioligand; read-out: % Activity: Inhibition of Control Specific Binding
Description: as §1, §2

[19] = biological target: alpha 1A (h) (Homo sapiens, UniProt P35348); assay: Cerep off-target radioligand binding; conditions: 1 micromolar; antagonist radioligand; read-out: % Activity: Inhibition of Control Specific Binding
Chain of alpha 1A (h) (P35348 whole entry): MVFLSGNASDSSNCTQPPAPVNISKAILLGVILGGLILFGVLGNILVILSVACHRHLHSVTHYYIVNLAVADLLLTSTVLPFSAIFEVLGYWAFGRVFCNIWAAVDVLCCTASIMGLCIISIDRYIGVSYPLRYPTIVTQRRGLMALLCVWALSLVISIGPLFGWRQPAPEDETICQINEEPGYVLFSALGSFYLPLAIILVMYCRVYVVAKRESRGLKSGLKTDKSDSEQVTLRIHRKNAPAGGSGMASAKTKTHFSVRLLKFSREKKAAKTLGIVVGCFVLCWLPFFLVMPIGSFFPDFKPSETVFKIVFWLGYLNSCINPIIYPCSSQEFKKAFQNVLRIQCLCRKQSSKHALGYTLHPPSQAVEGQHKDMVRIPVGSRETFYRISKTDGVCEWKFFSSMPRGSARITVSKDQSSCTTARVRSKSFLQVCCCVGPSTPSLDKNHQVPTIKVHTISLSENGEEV
Description: as §1, §2

[20] = biological target: T3, 5-HT1A (h) (Homo sapiens, UniProt P08908); assay: Cerep off-target radioligand binding; conditions: 1 micromolar; agonist radioligand; read-out: % Activity: Inhibition of Control Specific Binding
T3 construct: Eurofins Cerep (contract assay)
Description: as §1, §2

[21] = biological target: T4, 5-HT transporter (h) (Homo sapiens, UniProt P31645); assay: Cerep off-target radioligand binding; conditions: 1 micromolar; antagonist radioligand; read-out: % Activity: Inhibition of Control Specific Binding
T4 construct: Eurofins Cerep (contract assay)
Description: as §1, §2

[22] = biological target: T5, mu (MOP) (h) (Homo sapiens, UniProt P35372); assay: Cerep off-target radioligand binding; conditions: 1 micromolar; agonist radioligand; read-out: % Activity: Inhibition of Control Specific Binding
T5 construct: Eurofins Cerep (contract assay)
Description: as §1, §2

[23] = biological target: T6, GR (h) (Homo sapiens, UniProt P04150); assay: Cerep off-target radioligand binding; conditions: 1 micromolar; agonist radioligand; read-out: % Activity: Inhibition of Control Specific Binding
T6 construct: Eurofins Cerep (contract assay)
Description: as §1, §2

[24] = biological target: T7, 5-HT3 (h) (Homo sapiens, UniProt P46098); assay: Cerep off-target radioligand binding; conditions: 1 micromolar; antagonist radioligand; read-out: % Activity: Inhibition of Control Specific Binding
T7 construct: Eurofins Cerep (contract assay)
T7 sequence (P46098 24-478): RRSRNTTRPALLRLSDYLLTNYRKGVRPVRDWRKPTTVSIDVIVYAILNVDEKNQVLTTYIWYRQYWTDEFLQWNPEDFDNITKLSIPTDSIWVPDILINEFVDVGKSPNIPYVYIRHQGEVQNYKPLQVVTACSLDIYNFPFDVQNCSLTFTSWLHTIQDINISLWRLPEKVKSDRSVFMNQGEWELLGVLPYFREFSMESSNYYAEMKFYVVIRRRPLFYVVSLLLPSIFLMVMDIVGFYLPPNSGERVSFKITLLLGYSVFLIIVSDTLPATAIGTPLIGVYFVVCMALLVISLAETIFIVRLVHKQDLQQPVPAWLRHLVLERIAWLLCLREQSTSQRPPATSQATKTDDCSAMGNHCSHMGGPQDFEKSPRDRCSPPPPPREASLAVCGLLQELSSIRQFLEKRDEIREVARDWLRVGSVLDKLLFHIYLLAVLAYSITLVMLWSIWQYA
Description: as §1, §2

[25] = biological target: T8, 5-HT2A (h) (Homo sapiens, UniProt P28223); assay: Cerep off-target radioligand binding; conditions: 1 micromolar; agonist radioligand; read-out: % Activity: Inhibition of Control Specific Binding
T8 construct: Eurofins Cerep (contract assay)
Description: as §1, §2

[26] = biological target: T9, norepinephrine transporter (h) (Homo sapiens, UniProt P23975); assay: Cerep off-target radioligand binding; conditions: 1 micromolar; antagonist radioligand; read-out: % Activity: Inhibition of Control Specific Binding
T9 construct: Eurofins Cerep (contract assay)
Description: as §1, §2

[27] = tested on: 44 human cloned GPCRs and GPCR mediated cellular enzymatic activities; assay: Eurofins Cerep off-target safety pharmacology panel; assay type: binding; conditions: 1 micromolar
Description: as §1, §2
Results showing an inhibition (or stimulation) between 25% and 50% are indicative of weak to moderate effects (in most assays, they should be confirmed by further testing as they are within a range where more inter-experimental variability can occur). […]
Low to moderate negative values have no real meaning and are attributable to variability of the signal around the control level. […] The results are expressed as a percent of control specific binding measured specific binding

Question: How did the inhibition at 1 µM [1] turn out when `C[C@@H](O)[C@@H]1NC(=O)[C@H](CCCCN)NC(=O)[C@@H](Cc2c[nH]c3ccccc23)NC(=O)[C@H](Cc2ccccc2)NC(=O)[C@@H](NC(=O)[C@H](CCCNC(=N)N)NC(=O)[C@@H](Cc2ccccc2)NC(=O)CN2CCN(CC(=O)O)CCN(CC(=O)O)CCN(CC(=O)O)CC2)CSSCCN(CC(N)=O)C(=O)[C@H](Cc2ccccc2)NC1=O` [SEQ ID NO: 3, DOTA-D-Phe^1-Arg^2-Cys^3-Phe^4-D-Trp^5-Lys^6-Thr^7-Phe^8-NTEG^9-NH2 cyclo 3-9] ({DOTA}-[dF]RCF[dW]KTF[N(2-mercaptoethyl)Gly]-NH2; disulfide 3-9) was run?
Answer: Its inhibition at 1 µM is -4%.

Question: What about the inhibition at 1 µM [2] of the same molecule?
Answer: Its inhibition at 1 µM is -3%.

Question: What about the inhibition at 1 µM [3] of the same molecule?
Answer: Its inhibition at 1 µM is -7%.

Question: What about the inhibition at 1 µM [4] of the same molecule?
Answer: The inhibition at 1 µM was -31%.

Question: And the inhibition at 1 µM [5]?
Answer: Its inhibition at 1 µM is -7%.

Question: And the inhibition at 1 µM [6]?
Answer: Its inhibition at 1 µM is -6%.

Question: What about the inhibition at 1 µM [7] of the same molecule?
Answer: The inhibition at 1 µM was 0%.

Question: And the inhibition at 1 µM [8]?
Answer: Its inhibition at 1 µM is -1%.

Question: And the inhibition at 1 µM [9]?
Answer: The inhibition at 1 µM was 12%.

Question: And the inhibition at 1 µM [10]?
Answer: Its inhibition at 1 µM is 10%.

Question: And the inhibition at 1 µM [11]?
Answer: Its inhibition at 1 µM is 1%.

Question: And the inhibition at 1 µM [12]?
Answer: Its inhibition at 1 µM is -1%.

Question: What about the inhibition at 1 µM [13] of the same molecule?
Answer: Its inhibition at 1 µM is -4%.

Question: And the inhibition at 1 µM [14]?
Answer: Its inhibition at 1 µM is 7%.

Question: What about the inhibition at 1 µM [15] of the same molecule?
Answer: The inhibition at 1 µM was 2%.

Question: What about the inhibition at 1 µM [16] of the same molecule?
Answer: The inhibition at 1 µM was 10%.

Question: What about the inhibition at 1 µM [17] of the same molecule?
Answer: Its inhibition at 1 µM is -3%.

Question: What about the inhibition at 1 µM [18] of the same molecule?
Answer: Its inhibition at 1 µM is -15%.

Question: And the inhibition at 1 µM [19]?
Answer: The inhibition at 1 µM was -1%.

Question: And the inhibition at 1 µM [20]?
Answer: Its inhibition at 1 µM is -3%.

Question: What about the inhibition at 1 µM [21] of the same molecule?
Answer: Its inhibition at 1 µM is -9%.

Question: What about the inhibition at 1 µM [22] of the same molecule?
Answer: The inhibition at 1 µM was 8%.

Question: And the inhibition at 1 µM [23]?
Answer: Its inhibition at 1 µM is -10%.

Question: And the inhibition at 1 µM [24]?
Answer: The inhibition at 1 µM was 1%.

Question: What about the inhibition at 1 µM [25] of the same molecule?
Answer: Its inhibition at 1 µM is -2%.

Question: What about the inhibition at 1 µM [26] of the same molecule?
Answer: The inhibition at 1 µM was -10%.

Question: What about the “off-target interactions with opiate receptors” value [27] of the same molecule?
Answer: The value was “not indicated”.

Question: What about the “off-target interactions, safety pharmacology panel (in words)” value [27] of the same molecule?
Answer: The value was “no interaction with human cloned GPCRs of clinical significance”.
